The record followed here is patent US12532884B2, “Fungicidal compositions” (SYNGENTA CROP PROTECTION AG, priority 2020, dated 2026).

Read-outs that look alike come from different tables or passages of the source.

For one test, the system named is Septoria tritici. As to the kind of experiment: Example C2: mixtures against Septoria tritici (leaf blotch), liquid culture. It is filed as cell-based. The following applies: for inhibition at 0.3 ppm: read-out: Activity (%). The text has this: (§1) Certain mixture compositions comprising a compound of formula (I) described above may show a synergistic effect. This occurs whenever the action of an active ingredient combination is greater than the sum of the actions of the individual components. The action to be expected E for a given active ingredient combination obeys the so-called COLBY formula and can be calculated as follows (COLBY, S. R. “Calculating synergistic and antagonistic responses of herbicide combination”. Weeds, Vol. 15, pages 20-22; 1967): • ppm=milligrams of active ingredient (=a.i.) per liter of spray mixture • X=% action by active ingredient A) using p ppm of active ingredient • Y=% action by active ingredient B) using q ppm of active ingredient.
(§2) According to COLBY, the expected (additive) action of active ingredients A)+B) using p+q ppm of active ingredient is:
(§3) If the action actually observed (O) is greater than the expected action (E), then the action of the combination is super-additive, i.e. there is a synergistic effect. In mathematical terms, synergism corresponds to a positive value for the difference of (O-E). In the case of purely complementary addition of activities (expected activity), said difference (O-E) is zero. A negative value of said difference (O-E) signals a loss of activity compared to the expected activity.
(§4) Mycelia fragments or conidia suspensions of a fungus prepared either freshly from liquid cultures of the fungus or from cryogenic storage, are directly mixed into nutrient broth. DMSO solutions of the test compound (max. 10 mg/mL) are diluted with 0.025% Tween20 by a factor of 50 and 10 μl of this solution is pipetted into a microtiter plate (96-well format). The nutrient broth containing the fungal spores/mycelia fragments is then added to give an end concentration of the tested compound. The test plates are incubated in the dark at 24° C. and 96% relative humidity. The inhibition of fungal growth is determined photometrically after 2 to 7 days, depending on the pathosystem, and percent antifungal activity relative to the untreated check is calculated.
(§5) Conidia of the fungus from cryogenic storage were directly mixed into nutrient broth (PDB potato dextrose broth). A DMSO solution of the test compounds was placed into a microtiter plate (96-well format) and the nutrient broth containing the fungal spores was added to it.
The following mixture compositions at the reported concentration (in ppm) in tables C2-3 to C2-5 gave the following disease control in this test Septoria tritici (leaf blotch). Fungicidal activity was evaluated on a 100-0 scale (100=no disease growth; 0=well completely covered by mycelium).

Test [1] deals with Glomerella lagenarium syn. Colletotrichum lagenarium. As to the kind of experiment: Example C4: mixtures against Glomerella lagenarium syn. Colletotrichum lagenarium (anthracnose), liquid culture. It is filed as cell-based. The following applies: single component.
Excerpt: as §1, §2, §3, §4, §5
The following mixture compositions at the reported concentration (in ppm) in tables C4-3 and C4-4 gave the following disease control in this test (Glomerella lagenarium syn. Colletotrichum lagenarium). Fungicidal activity was evaluated on a 100-0 scale (100=no disease growth; 0=well completely covered by mycelium).

Another test relates to Septoria glycines. As to the kind of experiment: Example C3: mixtures against Septoria glycines (brown spot), liquid culture. As to conditions: for inhibition at 0.1 ppm / inhibition at 0.3 ppm: Septoria glycines, read-out: Activity (%). It is filed as cell-based.
Excerpt: This occurs whenever the action of an active ingredient combination is greater than the sum of the actions of the individual components. The action to be expected E for a given active ingredient combination obeys the so-called COLBY formula and can be calculated as follows (COLBY, S. R. “Calculating synergistic and antagonistic responses of herbicide combination”. Weeds, Vol. 15, pages 20-22; 1967): • ppm=milligrams of active ingredient (=a.i.) per liter of spray mixture • X=% action by active ingredient A) using p ppm of active ingredient • Y=% action by active ingredient B) using q ppm of active ingredient.
as §2, §3
as §4, with “The nutrient broth containing the fungal spores/mycelia fragments is then added to give an end concentration of the tested compound.” left out
Conidia of the fungus harvested from a fresh culture grown on artificial media, were directly mixed into nutrient broth (PDB potato dextrose broth). A DMSO solution of the test compounds was placed into a microtiter plate (96-well format) and the nutrient broth containing the fungal spores was added to it.
Fungicidal activity was evaluated on a 100-0 scale (100=no disease growth; 0=well completely covered by mycelium).

Test [2] has as its system Puccinia recondita (Brown rust). As to the kind of experiment: Example B: comparative biological activity against Puccinia recondita (brown rust), curative, wheat leaf segments. It is filed as in vivo. As to conditions: 8 dpi. The method, then:
Method; Wheat leaf segments are placed on agar in multiwell plates (24-well format). The leaf segments are inoculated with a spore suspension of the fungus and sprayed with test solutions 1 day after inoculation. After appropriate incubation the activity of a compound is assessed 8 dpi (days after inoculation) as curative fungicidal activity.
The data are presented as the percentage of disease control of each compound for the biological tests and testing rates described below in table B1.

In test [3] the test system is Mycosphaerella arachidis syn. Cercospora arachidicola. The test can be described thus: Example C1: mixtures against Mycosphaerella arachidis syn. Cercospora arachidicola (brown leaf spot), liquid culture. The following applies: single component, 100-0 scale (100=no disease growth). It is filed as cell-based.
Excerpt: as §1, §2, §3, §4, §5
The following mixture compositions at the reported concentration (in ppm) in tables C1-3 and C1-4 gave the following disease control in this test Mycosphaerella arachidis syn. Cercospora arachidicola (Brown leaf spot of peanut). Fungicidal activity was evaluated on a 100-0 scale (100=no disease growth; 0=well completely covered by mycelium).

Another test concerns Phakopsora pachyrhizi. As to the kind of experiment: Example D: preventative activity against Phakopsora pachyrhizi on soybean (whole plants sprayed, leaf disks inoculated). The following applies: applied alone. It is filed as in vivo.
Excerpt: as §1, §2, §3
Whole soybean plants are treated with the recited active ingredients 4 weeks after planting. 1 day after spraying leaf disks are cut from the first trifoliate leaf. Five repetitions at each rate are conducted. The leaf disks are inoculated with Phakopsora pachyrhizi (Asian soybean rust) one day after treatment. Evaluation of the leaf disks is conducted 11 to 14 days after inoculation and the activity is derived from the relation of the treated vs untreated, infested check. (100=no disease, no damage to the leaf, 0=high infestation, leaf damaged heavily). The rates of the active ingredients used are given in the tables as g active ingredient (a.i.)/ha.

Setting [4] is: single component, 0.1 ppm, 100-0 scale (100=no disease growth).
The mark [5] stands for this setting: single component, 0.3 ppm, 100-0 scale.
Setting [6] is: Colletotrichum orbiculare, 0.3 ppm.
Where [7] appears, read: Zymoseptoria tritici, single component, 0.3 ppm, 100-0 scale.
[8] abbreviates: single component, 0.3 ppm, 100-0 scale (100=no disease growth).

Turning to `Cn1cc(C(=O)Nc2cccc3c2[C@@H]2CC[C@H]3C2=C(Cl)Cl)c(C(F)F)n1` (racemic) [benzovindiflupyr], the “Activity (%)” value with Septoria tritici (setting [4]) was found to be 50%; in the test with Septoria tritici (setting [5]), 70%; in test [1] (0.1 ppm), 50%; in the test with Septoria glycines (single component, 0.1 ppm), 70%; in the test with Septoria glycines (setting [4]), 70%.
`CC(O)(Cn1cncn1)c1ccc(Oc2ccc(Br)cc2)nc1C(F)(F)F` (centres unmarked) [2-[6-(4-bromophenoxy)-2-(trifluoromethyl)-3-pyridyl]-1-(1,2,4-triazol-1-yl)propan-2-ol]: in test [1] (setting [6]), the inhibition at 0.3 ppm was found to be 0%.
For the molecule `CO/C=C(\Oc1cc(C#CC2CCCCC2)ccc1C)C(=O)OC` [Reference Compound Z-1, reference compound], the “control (%)” value in test [2] (20 ppm), in test [2] (60 ppm) and in test [2] (200 ppm) was 0% throughout.
In the case of `CO/C=C(\Oc1cccc(C(C)(C)C)c1)C(=O)OC` [Reference Compound Z-2, reference compound], the “control (%)” value in test [2] (20 ppm), in test [2] (60 ppm) and in test [2] (200 ppm) was 0% in each case.
Regarding `Cc1ccc(C(=O)OCc2ccc(Oc3ccccc3)cc2)c(N)n1` [aminopyrifen], the “Activity (%)” value in test [1] (0.1 ppm) came to 20%; in test [1] (0.3 ppm) it was 50%.
For `N#Cc1c(Cl)c(Cl)c(Cl)c(C#N)c1Cl` [chlorothalonil, reference compound], the inhibition at 0.1 ppm in test [3] (Mycosphaerella arachidis, 0.1 ppm) amounted to 20%; in the test on Septoria tritici (Zymoseptoria tritici, single component, 0.1 ppm, 100-0 scale (100=no disease growth)) it was 20%; in the test with Septoria glycines (setting [4]), 0%. The inhibition at 0.3 ppm is 50% in the test on Septoria tritici (setting [7]) and 20% in the test with Septoria glycines (setting [8]). Moreover, the inhibition at 450 g/ha in the test on Phakopsora pachyrhizi (Phakopsora pachyrhizi, foliar, 450 g/ha, read-out: Observed Activity (% of untreated)) turned out to be 8%. Further, the inhibition at 900 g/ha in the test on Phakopsora pachyrhizi (Phakopsora pachyrhizi, foliar, 900 g/ha, read-out: Observed Activity (% of untreated)) was found to be 7%.
`CC(C1CC1)C(O)(Cn1cncn1)c1ccc(Cl)cc1` (centres unmarked) [cyproconazole]: in the test with Septoria tritici (setting [7]), the inhibition at 0.3 ppm is 50%. In addition, the inhibition at 0.1 ppm in the test on Septoria glycines (setting [4]) came to 20%.
On to `COc1ccnc(C(=O)N[C@H]2COC(=O)[C@H](Cc3ccccc3)[C@@H](OC(=O)C(C)C)[C@H](C)OC2=O)c1OCOC(=O)C(C)C` [fenpicoxamid], for which the “Activity (%)” value worked out at 20% in test [1] (0.1 ppm) and 70% in test [1] (0.3 ppm).
In the case of `N#Cc1c[nH]cc1-c1cccc2c1OC(F)(F)O2` [fludioxonil], the inhibition at 0.3 ppm in the test on Septoria tritici (Zymoseptoria tritici) and in the test on Septoria glycines was 20% throughout. Also, the inhibition at 0.1 ppm in the test on Septoria glycines was 0%.
With `Cc1nc2c(F)c(F)ccc2cc1Oc1cccc(F)c1C(C)(C)O` [ipflufenoquin, reference compound], the “Activity (%)” value in test [3] (0.3 ppm) is listed as 0%; in the test with Septoria tritici (setting [4]), 20%; with Septoria tritici (setting [5]), 20%; in test [1] (0.1 ppm), 50%; with Septoria glycines (single component, 0.1 ppm) it was 0%; in the test with Septoria glycines (setting [4]) it was 0%. Further, the “Activity (%)” value was determined as 20% in the test with Septoria glycines (single component, 0.3 ppm) and 20% in the test on Septoria glycines (setting [8]).
Turning to `CC(C)C1C2CCC1c1c(NC(=O)c3cn(C)nc3C(F)F)cccc12` (centres unmarked) [isopyrazam], the “Activity (%)” value amounted to 50% in the test on Septoria tritici (setting [4]); 70% in the test on Septoria tritici (setting [5]); 70% in the test with Septoria glycines (single component, 0.1 ppm); 70% in the test on Septoria glycines (setting [4]); 70% with Septoria glycines (single component, 0.3 ppm); 70% with Septoria glycines (setting [8]).
For `CC(O)(Cn1cncn1)c1ccc(Oc2ccc(Cl)cc2)cc1C(F)(F)F` (centres unmarked) [mefentrifluconazole], in test [1] (0.3 ppm), the “Activity (%)” value is 0%.
As to `OC(Cc1ccccc1Cl)(Cn1nc[nH]c1=S)C1(Cl)CC1` (centres unmarked) [prothioconazole], the inhibition at 0.1 ppm in test [1] (Colletotrichum orbiculare, 0.1 ppm) came out at 20%. Further, the inhibition at 0.3 ppm in test [1] (setting [6]) was found to be 70%.
Turning to mancozeb [reference compound], the “Activity (%)” value in test [3] (0.1 ppm) worked out at 0%; in test [3] (0.3 ppm), 0%; in test [1] (0.1 ppm), 0%; in test [1] (0.3 ppm) it was 20%; with Septoria glycines (setting [4]), 0%; in the test with Septoria glycines (setting [8]), 0%. Besides, the “Observed Activity (% of untreated)” value in the test on Phakopsora pachyrhizi (225 g/ha) is listed as 27%; in the test on Phakopsora pachyrhizi (450 g/ha), 39%.
